The values that follow come from patent publication US8476031B2, “Methods for protein labeling based on acyl carrier protein” (priority 2003, dated 2013).

One experiment addresses 6xHis-ACP (Escherichia coli, UniProt P0A6A8+P24224). The experiment can be described thus: In vitro biotinylation of 6xHis-ACP using CoA-Bt and 6xHis-ACPS (Western blot). The experiment is classed as biochemical, E. coli. Conditions: 6xHis-ACP 1 μM, 6xHis-ACPS 0.2 μM, CoA-Bt 5 μM; controls lacking components. The method, then:
(A) Analysis of the reaction of 6xHis-ACP (1 μM), 6xHis-ACPS (0.2 μM) and CoA-Bt (5 μM). At indicated times (t) aliquots are removed from the reaction mixture and biotinylation of 6xHis-ACP probed by Western blotting using a streptavidin-peroxidase conjugate.
Purified 6xHis-ACP (1 μM) is incubated with 6xHis-ACPS (0.2 μM) and MgCl2 (10 mM) in reaction buffer (43 μl, 50 mM Tris Cl, pH 8.8) at room temperature. An aliquot of 7.5 μl is taken for analysis. CoA-Bt is added to a final concentration of 5 μM. Aliquots of 7.5 μl are taken at defined times. The aliquots are quenched for 30 seconds with coenzyme A (1 mM final concentration), and 8.2 μl SDS-buffer 2× are added. The samples are heated for 2 minutes at 95° C. The biotinylated 6xHis-ACP is detected by Western-blotting, using a streptavidin-horseradish peroxidase conjugate (NEN) and a chemiluminescent peroxidase substrate (Renaissance reagent plus, NEN). The western blot is analyzed using an image station (Kodak 440). As controls, samples containing each protein alone, and samples containing only one of the two proteins and CoA-Bt are also prepared and analyzed for biotinylation as above in order to check the background and to check the specificity of the reaction.

The next experiment deals with T1, 6xHis-ACPS (Escherichia coli, UniProt P24224).
T1 sequence (P24224 1-126): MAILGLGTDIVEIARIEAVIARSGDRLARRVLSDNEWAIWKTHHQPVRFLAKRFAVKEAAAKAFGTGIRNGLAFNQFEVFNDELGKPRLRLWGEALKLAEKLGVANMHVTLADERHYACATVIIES
Nature of the experiment: Competition assay between CoA and CoA-label as ACPS substrates. The note with it: 6xHis-ACP 0.4 μM, 6xHis-ACPS 0.4 μM, CoA-L 2 μM, CoA 0-80 μM; fit I=A/(1+Bx) of Western blot intensities. It is filed as biochemical, E. coli. How it is done: (C) Competition assay between CoA and CoA-Bt or CoA-Dg as ACPS substrates: 6xHis-ACP (0.4 μM), 6xHis-ACPS (0.4 μM), CoA-Bt or CoA-Dg (2 μM) and varying concentrations of CoA (0-80 μM) are incubated for 30 min and the degree of labeling determined by Western blotting.
Purified 6xHis-AcpS (0.4 μM) is incubated at RT with either CoA-Bt or CoA-Dg (2 μM), variable amounts of CoA (0, 2, 4, 8, 12, 20, 40, 80 μM) and purified 6xHis-ACP-ha (0.4 μM) in 20 μl reaction buffer (50 mM Tris.Cl, pH 7.5, 10 mM MgCl2). After 25 minutes, each sample is quenched by addition of 20 μl of 2×SDS sample buffer and heated at 95° C. for 2 minutes. Labeled 6xHis-ACP-ha is detected by Western-blotting using either a streptavidin-horseradish peroxidase conjugate (dilution 1:12500) or an anti-digoxigenin antibody-horseradish peroxidase conjugate (dilution 1:500) and a chemiluminescent peroxidase substrate. Signal intensities at 0 μM CoA are arbitrary set to 1 for each experiment.

The target in experiment [1] is T2, ACP-NK1 fusion protein displayed on HEK293 cells (UniProt P0A6A8+P24224+P25103).
T2 construct: FLAG tag (C); 6xHis tag (C); expressed in transfected cells; host or cells: HEK293 (transient, pCEP4 vector)
T2 sequence (P0A6A8+P25103 fused, one chain of several): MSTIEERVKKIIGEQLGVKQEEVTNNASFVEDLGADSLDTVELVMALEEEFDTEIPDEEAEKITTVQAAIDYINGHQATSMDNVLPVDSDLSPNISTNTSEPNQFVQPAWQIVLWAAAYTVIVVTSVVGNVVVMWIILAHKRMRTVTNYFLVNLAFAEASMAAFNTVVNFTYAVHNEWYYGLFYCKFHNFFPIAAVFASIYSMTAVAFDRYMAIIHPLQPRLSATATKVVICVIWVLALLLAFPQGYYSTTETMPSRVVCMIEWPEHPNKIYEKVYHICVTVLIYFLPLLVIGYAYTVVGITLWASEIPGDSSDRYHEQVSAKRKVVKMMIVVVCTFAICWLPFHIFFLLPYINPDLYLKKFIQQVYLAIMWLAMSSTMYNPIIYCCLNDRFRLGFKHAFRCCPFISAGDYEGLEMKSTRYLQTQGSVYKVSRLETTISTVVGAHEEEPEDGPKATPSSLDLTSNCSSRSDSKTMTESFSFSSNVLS
The experiment can be described thus: Labeling of ACP-NK1 fusion protein displayed on HEK293 cells (confocal fluorescence microscopy). The experiment is classed as cell-based. The note with it: 5 μM CoA substrate, 1 μM 6xHis-AcpS, 10 min RT; CoA-Bt followed by Streptavidin-Cy5; no staining of non-transfected cells. The method, then:
For the transient expression of ACP-NK1, the signal sequence of the 5-HT3-receptor (Sig5HT3) is fused to the N terminus of ACP via a short DYV linker and NK1 is fused to the C terminus of ACP via a short TS linker. In the resulting construct, a FLAG tag and a 6xHis tag is also attached to the C terminus of NK1. The corresponding gene of the fusion protein is inserted into the NheI and BamHI sites of the vector pCEP4 (Invitrogen). HEK293 cells are grown in DMEM/F2 (Dulbecco's modified Eagle medium, GIBCO BRL) supplemented with […] fetal calf serum (GIBCO, BRL). Transient transfection is performed as described (Nat Biotechnol 21, 86-89 (2003)) and the HEK293 cells are co-transfected with vectors expressing ACP-NK1 and a nuclear targeted EGEP (EGFP-NLS3). After 24 h, cells are incubated for 10 min at room temperature with 500 μl of PBS buffer containing MgCl2 (10 mM), 6xHis-AcpS (1 μM) and either CoA-Cy3, CoA-Cy5 or CoA-Bt (each 5 μM). The cells are then washed three times with PBS to remove any excess substrate and directly analyzed by laser-scanning confocal fluorescence microscopy when labeled with Cy3 or Cy5. Biotinylated cells are incubated with FluoroLink™ Cy5-labeled streptavidin (Amersham Biosciences) at concentrations of 1 μg/ml in PBS before being washed three times with PBS. Laser-scanning confocal micographs are recorded using a 488 nm argon/krypton laser line; a 543 nm HeNe laser line or a 633 nm HeNe laser line on a Zeiss LSM 510 microscope (Carl Zeiss AG, Göttingen, Germany) with a 63× water (1.2 numerical aperture) objective. Scanning speed and laser intensity are adjusted to avoid photobleaching of the fluorescent probes, and damage or morphological changes of the cells. Fluorescence is analyzed in the channels sensitive to GFP and sensitive to the respective dye. […] The ACP-NK1 receptor transiently expressed in HE293 cells is co-stained in a further experiment with CoA-Cy5 and with tetramethylrhodamine-labeled substance P(SP-rho), the natural ligand of NK1.

For experiment [2], the target named is T3, ACP-NK1 receptor transiently expressed in HE293 cells (UniProt P0A6A8+P25103).
T3 construct: FLAG tag (C); 6xHis tag (C); expressed in transfected cells; host or cells: HEK293 (transient, pCEP4 vector)
T3 sequence (P0A6A8+P25103 fused): as the sequence (P0A6A8+P25103 fused, one chain of several) above
Nature of the experiment: Co-staining of ACP-NK1 with CoA-Cy5 and SP-rho, reversal by unlabeled substance P. The experiment is classed as cell-based. Conditions: CoA-Cy5 and SP-rho co-stained. The method, then:
For the transient expression of ACP-NK1, the signal sequence of the 5-HT3-receptor (Sig5HT3) is fused to the N terminus of ACP via a short DYV linker and NK1 is fused to the C terminus of ACP via a short TS linker. In the resulting construct, a FLAG tag and a 6xHis tag is also attached to the C terminus of NK1. The corresponding gene of the fusion protein is inserted into the NheI and BamHI sites of the vector pCEP4 (Invitrogen). HEK293 cells are grown in DMEM/F2 (Dulbecco's modified Eagle medium, GIBCO BRL) supplemented with […] fetal calf serum (GIBCO, BRL). Transient transfection is performed as described (Nat Biotechnol 21, 86-89 (2003)) and the HEK293 cells are co-transfected with vectors expressing ACP-NK1 and a nuclear targeted EGEP (EGFP-NLS3). […] The cells are then washed three times with PBS to remove any excess substrate and directly analyzed by laser-scanning confocal fluorescence microscopy when labeled with Cy3 or Cy5. […] Laser-scanning confocal micographs are recorded using a 488 nm argon/krypton laser line; a 543 nm HeNe laser line or a 633 nm HeNe laser line on a Zeiss LSM 510 microscope (Carl Zeiss AG, Göttingen, Germany) with a 63× water (1.2 numerical aperture) objective. […] Fluorescence is analyzed in the channels sensitive to GFP and sensitive to the respective dye. […]

Sequence of 6xHis-ACP (P0A6A8 whole entry, looked up, one chain of several): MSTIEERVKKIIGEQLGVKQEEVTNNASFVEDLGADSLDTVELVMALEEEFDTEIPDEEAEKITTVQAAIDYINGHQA

Consider `CC(C)(COP(=O)(O)OP(=O)(O)OC[C@H]1O[C@@H](n2cnc3c(N)ncnc32)C(O)[C@H]1OP(=O)(O)O)[C@@H](O)C(=O)NCCC(=O)NCCS[C@@H]1CC(=O)N(CCCCCC(=O)NNC(=O)CCCC[C@@H]2SC[C@@H]3NC(=O)N[C@@H]32)C1=O` (stereo partly shown) [CoA-Bt], for which the “biotinylation of 6xHis-ACP, specificity controls” value at 6xHis-ACP is recorded as “depends on the presence of all three components”. The “ratio of the specificity constants (kcat/KM)CoA/(kcat/KM)CoA-L” value at 6xHis-ACPS was 0.48. Further, the “membrane labelling of transfected HEK293 cells” value (shortened to “membrane labelling”) in experiment [1] is listed as “clear membrane labelling”.

As to `CCN1/C(=C/C=C/C=C/C2=[N+](CCCCCC(=O)NCCN3C(=O)C[C@@H](SCCNC(=O)CCNC(=O)[C@H](O)C(C)(C)COP(=O)(O)OP(=O)(O)OC[C@H]4O[C@@H](n5cnc6c(N)ncnc65)C(O)[C@H]4OP(=O)(O)O)C3=O)c3ccc(S(=O)(=O)O)cc3C2(C)C)C(C)(C)c2cc(S(=O)(=O)[O-])ccc21` (stereo partly shown) [CoA-Cy5], the “membrane labelling” value in experiment [1] was “clear membrane labelling”. Moreover, the “staining localisation in co-staining experiment” value in experiment [2] is “stain exclusively the membrane area”.

As to `CC(C)(COP(=O)(O)OP(=O)(O)OC[C@H]1O[C@@H](n2cnc3c(N)ncnc32)C(O)[C@H]1OP(=O)(O)O)[C@@H](O)C(=O)NCCC(=O)NCCSC1CC(=O)N(CCCCCC(=O)NNC(=O)CCC(=O)N[C@H]2CC[C@@]3(C)[C@H](CC[C@@H]4[C@H]3C[C@@H](O)[C@]3(C)[C@@H](C5=CC(=O)OC5)CC[C@]43O)C2)C1=O` (stereo partly shown) [CoA-Dg], on 6xHis-ACPS, the “ratio of the specificity constants (kcat/KM)CoA/(kcat/KM)CoA-L” value was 0.35.

Take `CCN1/C(=C/C=C/C2=[N+](CCCCCC(=O)NCCN3C(=O)C[C@@H](SCCNC(=O)CCNC(=O)[C@H](O)C(C)(C)COP(=O)(O)OP(=O)(O)OC[C@H]4O[C@@H](n5cnc6c(N)ncnc65)C(O)[C@H]4OP(=O)(O)O)C3=O)c3ccc(S(=O)(=O)O)cc3C2(C)C)C(C)(C)c2cc(S(=O)(=O)[O-])ccc21` (stereo partly shown) [CoA-Cy3]: in experiment [1], the “membrane labelling” value was “clear membrane labelling”.
